Key:
Experiment in all cases: combination Emax (second highest fraction inhibited in the dose matrix, 72 h); higher = more inhibition; extreme values may be limits of the assay
[1] = test system: ACHN (Kidney Carcinoma)
Method in brief: (§1)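 Bliss excess equals the observed combination effect minus the expected value EA + EB − EA·EB, where EA and EB are the effects of each agent alone. Combination Emax is the second-highest inhibition within the matrix. Inhibition was scaled from CellTiter-Glo 2.0 luminescence, with 0 set by vehicle wells and 1 by blank wells, after 72 hours of two-drug dosing of cells plated in 1536-well plates.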

[2] = test system: AMO-1 (Plasma Cell Myeloma)
Method in brief: as §1

[3] = test system: BT-549 (Breast Carcinoma)
Method in brief: as §1

[4] = test system: C-4-I (Cervical Carcinoma)
Method in brief: as §1

[5] = test system: Caov-4 (Ovarian Carcinoma)
Method in brief: as §1

[6] = test system: HGC-27 (Gastric Carcinoma)
Method in brief: as §1

[7] = test system: KMOE-2 (Acute Myeloid Leukemia)
Method in brief: as §1

[8] = test system: KYSE-450 (Esophageal Squamous Cell Carcinoma)
Method in brief: as §1

[9] = test system: LU-65 (Non-Small Cell Lung Carcinoma)
Method in brief: as §1

[10] = test system: MIA-PaCa-2 (Pancreatic Carcinoma)
Method in brief: as §1

[11] = test system: MLMA (Other Blood Carcinomas)
Method in brief: as §1

[12] = test system: NB69 (Neuroblastoma)
Method in brief: as §1

[13] = test system: NCI-H1915 (Non-Small Cell Lung Carcinoma)
Method in brief: as §1

[14] = test system: NCI-H727 (Other Solid Carcinomas)
Method in brief: as §1

[15] = test system: OE19 (Esophageal Adenocarcinoma)
Method in brief: as §1

[16] = test system: OSC-20 (Oral Cavity Carcinoma)
Method in brief: as §1

[17] = test system: RF-48 (B-Cell Non-Hodgkin's Lymphoma)
Method in brief: as §1

[18] = test system: SW13 (Other Solid Carcinomas)
Method in brief: as §1

[19] = test system: TE-1 (Esophageal Squamous Cell Carcinoma)
Method in brief: as §1

[20] = test system: VA-ES-BJ (Other Solid Carcinomas)
Method in brief: as §1

Row | Compound | combination Emax [1] | combination Emax [2] | combination Emax [3] | combination Emax [4] | combination Emax [5] | combination Emax [6] | combination Emax [7] | combination Emax [8] | combination Emax [9] | combination Emax [10] | combination Emax [11] | combination Emax [12] | combination Emax [13] | combination Emax [14] | combination Emax [15] | combination Emax [16] | combination Emax [17] | combination Emax [18] | combination Emax [19] | combination Emax [20]
1 | Cn1cnc2c(F)c(Nc3ccc(Br)cc3Cl)c(C(=O)NOCCO)cc21 [Selumetinib] + CCN(CCO)CCCOc1ccc2c(Nc3cc(CC(=O)Nc4cccc(F)c4)[nH]n3)ncnc2c1 [AZD2811] (first compound max 10 µM, 7x7, partner max 1 µM) | 0.366 | 0.481 | 0.3 | 0.66 | 0.551 | 0.71 | 0.999 | 0.209 | 0.635 | 0.657 | 0.286 | 0.921 | 0.6 | 0.622 | 0.796 | 0.343 | 0.312 | 0.615 | 0.49 | 0.327
2 | CCc1c2c(nc3ccc(O)cc13)-c1cc3c(c(=O)n1C2)COC(=O)[C@]3(O)CC [SN-38] + CN(C)CCCOc1ccc(-c2ccc3ncc4c(c3c2)n(C2CCOCC2)c(=O)n4C)cn1 [AZD0156] (first compound max 0.3 µM, 7x7, partner max 1 µM) | 0.951 | 0.9 | 0.423 | 0.932 | 0.954 | 0.885 | 0.945 | 0.767 | 0.836 | 0.945 | 0.877 | 0.995 | 0.609 | 0.297 | 0.618 | 0.716 | 0.801 | 0.988 | 0.522 | 0.875
3 | CN(C)CCCOc1ccc(-c2ccc3ncc4c(c3c2)n(C2CCOCC2)c(=O)n4C)cn1 [AZD0156] + C[C@@H]1COCCN1C2=NC(=NC(=C2)C3(CC3)[S@](=N)(=O)C)C4=C5C=CNC5=NC=C4 [AZD6738] (first compound max 1 µM, 7x7, partner max 10 µM) | 0.883 | 0.908 | 0.46 | 0.872 | 0.744 | 0.862 | 0.59 | 0.649 | 0.76 | 0.605 | 0.79 | 0.745 | 0.522 | 0.635 | 0.869 | 0.334 | 0.588 | 0.469 | 0.462 | 0.699
4 | COc1nnc2ccc(N3CCC(c4ccc(OCCN5CCN(C)C(=O)[C@H]5C)cc4)CC3)nn12 [AZD5153] + CC1(C)CCC(CN2CCN(c3ccc(C(=O)NS(=O)(=O)c4ccc(NCC5CCOCC5)c([N+](=O)[O-])c4)c(Oc4cnc5[nH]ccc5c4)c3)CC2)=C(c2ccc(Cl)cc2)C1 [Venetoclax] (first compound max 1 µM, 7x7, partner max 1 µM) | 0.535 | 0.907 | 0.518 | 0.514 | 0.543 | 0.777 | 0.847 | 0.332 | 0.458 | 0.878 | 0.912 | 0.952 | 0.432 | 0.34 | 0.494 | 0.129 | 0.53 | 0.384 | 0.4 | 0.5
5 | CCN(CCO)CCCOc1ccc2c(Nc3cc(CC(=O)Nc4cccc(F)c4)[nH]n3)ncnc2c1 [AZD2811] + C=CCn1c(=O)c2cnc(Nc3ccc(N4CCN(C)CC4)cc3)nc2n1-c1cccc(C(C)(C)O)n1 [AZD1775] (first compound max 1 µM, partner max 1 µM) | 0.999 | 0.718 | 0.62 | 0.771 | 0.821 | 0.896 | 0.89 | 0.61 | 0.56 | 0.727 | 0.981 | 0.885 | 0.522 | 0.311 | 0.651 | 0.369 | 0.522 | 0.463 | 0.601 | 0.356
6 | CC1(C)CCC(CN2CCN(c3ccc(C(=O)NS(=O)(=O)c4ccc(NCC5CCOCC5)c([N+](=O)[O-])c4)c(Oc4cnc5[nH]ccc5c4)c3)CC2)=C(c2ccc(Cl)cc2)C1 [Venetoclax] + C1CN(CCC1(C(=O)N[C@@H](CCO)C2=CC=C(C=C2)Cl)N)C3=NC=NC4=C3C=CN4 [Capivasertib] (first compound max 1 µM, 7x7, partner max 3 µM) | 0.81 | 0.76 | 0.239 | 0.235 | 0.282 | 0.814 | 0.581 | 0.197 | 0.462 | 0.213 | 0.866 | 0.426 | 0.141 | 0.482 | 0.306 | 0.265 | 0.364 | 0.254 | 0.162 | 0.264
7 | CC1(C)CCC(CN2CCN(c3ccc(C(=O)NS(=O)(=O)c4ccc(NCC5CCOCC5)c([N+](=O)[O-])c4)c(Oc4cnc5[nH]ccc5c4)c3)CC2)=C(c2ccc(Cl)cc2)C1 [Venetoclax] + CCN(CCO)CCCOc1ccc2c(Nc3cc(CC(=O)Nc4cccc(F)c4)[nH]n3)ncnc2c1 [AZD2811] (first compound max 1 µM, 7x7, partner max 1 µM) | 0.739 | 0.816 | 0.336 | 0.269 | 0.263 | 0.809 | 0.293 | 0.27 | 0.249 | 0.37 | 0.841 | 0.777 | 0.224 | 0.317 | 0.779 | 0.336 | 0.43 | 0.402 | 0.298 | 0.359
8 | C[C@@H]1COCCN1c1cc(C2([S@](C)(=N)=O)CC2)nc(-c2ccnc3[nH]ccc23)n1 [AZD6738] + O=C(c1cc(Cc2n[nH]c(=O)c3ccccc23)ccc1F)N1CCN(C(=O)C2CC2)CC1 [Olaparib] (first compound max 10 µM, 7x7, partner max 10 µM) | 0.988 | 0.866 | 0.446 | 0.875 | 0.969 | 0.902 | 0.616 | 0.608 | 0.751 | 0.708 | 0.988 | 0.94 | 0.557 | 0.384 | 0.55 | 0.387 | 0.56 | 0.451 | 0.319 | 0.64
9 | CC1(C)CCC(CN2CCN(c3ccc(C(=O)NS(=O)(=O)c4ccc(NCC5CCOCC5)c([N+](=O)[O-])c4)c(Oc4cnc5[nH]ccc5c4)c3)CC2)=C(c2ccc(Cl)cc2)C1 [Venetoclax] + C[C@@H](Nc1cc(F)cc(F)c1)c1cc(C(=O)N(C)C)cc2c(=O)cc(N3CCOCC3)oc12 [AZD8186] (first compound max 1 µM, 7x7, partner max 3 µM) | 0.842 | 0.842 | 0.258 | 0.398 | 0.171 | 0.54 | 0.323 | 0.118 | 0.199 | 0.153 | 0.89 | 0.998 | 0.118 | 0.274 | 0.306 | 0.128 | 0.345 | 0.128 | 0.217 | 0.149
10 | CC(=O)Nc1cccc(-n2c(=O)n(C3CC3)c(=O)c3c(Nc4ccc(I)cc4F)n(C)c(=O)c(C)c32)c1 [Trametinib] + Cc1nc(-c2cn3c(n2)-c2ccc(-c4cnn(C(C)(C)C(N)=O)c4)cc2OCC3)n(C(C)C)n1 [Taselisib] (first compound max 1 µM, 7x7, partner max 10 µM) | 0.643 | 0.812 | 0.497 | 0.94 | 0.76 | 0.924 | 1 | 0.753 | 0.985 | 0.887 | 0.661 | 1 | 1 | 0.988 | 0.97 | 0.669 | 0.345 | 0.929 | 0.75 | 0.687
11 | COc1nnc2ccc(N3CCC(c4ccc(OCCN5CCN(C)C(=O)[C@H]5C)cc4)CC3)nn12 [AZD5153] + C=CCn1c(=O)c2cnc(Nc3ccc(N4CCN(C)CC4)cc3)nc2n1-c1cccc(C(C)(C)O)n1 [AZD1775] (first compound max 1 µM, partner max 1 µM) | 0.835 | 0.978 | 0.732 | 0.838 | 0.864 | 0.839 | 0.971 | 0.519 | 0.799 | 0.882 | 0.938 | 0.99 | 0.678 | 0.431 | 0.539 | 0.284 | 0.558 | 0.561 | 0.591 | 0.724
12 | CC1(C)CCC(CN2CCN(c3ccc(C(=O)NS(=O)(=O)c4ccc(NCC5CCOCC5)c([N+](=O)[O-])c4)c(Oc4cnc5[nH]ccc5c4)c3)CC2)=C(c2ccc(Cl)cc2)C1 [Venetoclax] + Cc1cc2ncnn2cc1Nc1ncc2c(n1)n(C1CCOCC1)c(=O)n2C [AZD7648] (first compound max 1 µM, 7x7, partner max 10 µM) | 0.725 | 0.73 | 0.258 | 0.222 | 0.263 | 0.485 | 0.427 | 0.14 | 0.378 | 0.269 | 0.86 | 0.523 | 0.641 | 0.25 | 0.281 | 0.205 | 0.321 | 0.302 | 0.0373 | 0.233

From the supplement of paper PMC11061612
